Test results published in patent US20210002725A1, “METHODS FOR THE DIAGNOSIS OF METABOLIC DISORDERS USING EPIMETABOLIC SHIFTERS, MULTIDIMENSIONAL INTRACELLULAR MOLECULES, OR ENVIRONMENTAL INFLUENCES” (Berg LLC, priority 2009, published 2021).
Where two headings read alike, the source gives them in different places.

Tests used:
[1] = cited from earlier work
[2] = system: HepG2 (liver cancer) cells; assay: Real-time PCR Angiogenesis Array; assay type: cell-based
Description: The treatment was initiated on 1×10^5 cells per well, following the procedure utilized in the PaCa2 cells (above Examples 9-11). However, the total amount of RNA that was extracted from these samples was lower than expected. Reverse transcription is normally done using 1 μg of total RNA (determined by measurement at 260 nm).

[3] = system: SCC cells; assay: Real-time PCR Apoptosis Array; assay type: cell-based; conditions: 100 μM Q10
From the text: The control cells were untreated cells.
RNA was quantified by measuring Optical Density at 260 nm.

[4] = system: HDFa cells; assay: SeaHorse XF analyzer OCR and ECAR; assay type: cell-based, human; conditions: normoxic and hypoxic conditions, 5.5 mM and 22 mM glucose
From the text: Environmental influencers (e.g., MIMs or Epi-shifters) may also be identified by changes in cellular energetics. One example of the measurement of cellular energetics are the real-time measures of the consumption of molecular oxygen and/or the change in pH of the media of a cell culture. For example, the ability of a potential epi-shifter to modulate the metabolic state of a cell may be analyzed using, for example, the XF24 Analyzer (Seahorse, Inc.). This technology allows for real time detection of oxygen and pH changes in a monolayer of cells in order to evaluate the bioenergetics of a cell microenvironment. The XF24 Analyzer measures and compares the rates of oxygen consumption (OCR), which is a measure of aerobic metabolism, and extracellular acidification (ECAR), which is a measure of glycolysis, both key indicators of cellular energetics.
(SeaHorse Biosciences Inc, North Billerica, Mass.).
In this experiment, the OCR and extracellular acidification rate (ECAR) in normal cells lines were obtained in the presence and absence of CoQ10 to determine baseline values. It was observed that in its native nutrient environment, the basal OCR rates in normal cells lines are different, and are usually a function of the physiological roles of the cells in the body.
For example, one set of experiments were conducted using the non-cancerous cell line HDFa, which is a human adult dermal fibroblast cell line. Fibroblasts are cells that primarily synthesize and secrete extracellular matrix (ECM) components and collagen that form the structural framework (stroma) for tissues. In addition, fibroblasts are known to serve as tissue ambassadors of numerous functions such as wound healing and localized immnomodulation. Under normal physiological conditions, energy requirements in normal fibroblasts are met using a combination of glycolysis and oxidative phosphorylation—the glycolysis providing the necessary nutrients for synthesis of ECM.
FIGS. 29 and 30 describe the OCR in HDFa and HASMC cells grown in physiologically normal glucose (about 4.6 mM) and high glucose (hyperglycemic) conditions.

[5] = system: variety of cell types; assay: Western blot analysis (Bcl-xL, Vimentin, oxidative phosphorylation complexes, mitochondrial membrane integrity proteins); assay type: cell-based; conditions: 50 or 100 μM Q10
Description: Approximately 50 μg of protein were assayed per sample by immunoblotting. All treatments were run in triplicate with controls. […] The primary antibodies were incubated overnight at 4 degrees C. in a 5% BSA and TBST solution. Secondary antibodies were incubated for one hour at 4 degrees. All antibodies were purchased from Cell Signaling Technology. Antibodies were used at a ratio of 1:1000, with the exception of βActin at a ratio of 1:5000. Blots were developed and results were quantified using the NIH Java based densitometer analysis software Image J. All blots were also probed for and normalized to their respective βActin expression.
The first experiment processed and evaluated by Western blot and 2-D gel electrophoresis was carried out on the skin cancer cell line SKMEL-28.
A variety of cell types were evaluated by Western blot analysis against an antibody for Bcl-xL (FIG. 14), an antibody for Vimentin (FIG. 15), a series of antibodies for mitochondrial oxidative phosphorylation function (FIGS. 16-21) and against a series of antibodies related to mitochondrial membrane integrity (FIGS. 22-27).

[6] = system: SKBr3 cells; assay: Nexin assay for early and late apoptosis (flow cytometry); assay type: cell-based, human; conditions: 50 μM or 100 μM Q10, 24 hours
From the text: The 7AAD dye will enter into cells with permeabilized cell membranes; primarily those cells that are in late apoptosis. Annexin-V-PE is a dye that binds to Phosphotidyl serine, which is exposed on the outer surface of the plasma membrane in early apoptotic cells. The Nexin reagent thus can be used to differentiate between different populations of apoptotic cells in a flow cytometer.

[7] = system: HepG2 (liver cancer) cells; assay: Real-time PCR Apoptosis Array; assay type: cell-based

In the case of `COC1=C(OC)C(=O)C(C/C=C(\C)CC/C=C(\C)CC/C=C(\C)CC/C=C(\C)CC/C=C(\C)CC/C=C(\C)CC/C=C(\C)CC/C=C(\C)CC/C=C(\C)CCC=C(C)C)=C(C)C1=O` [Q10, Coenzyme Q10], the “CoQ10 in the reduced form” value ([1]; blood (plasma), Bhagavan) is listed as about 96%, the “CoQ10 in the reduced form” value ([1]; heart) is listed as “about 61%” and the “molecule found in the reduced form (Q10H2)” value ([1]; human plasma, Ruiz-Jimenez 2007) is listed as 90%. For the same molecule, the “CoQ10 in the reduced form” value ([1]; intestine) was about 95%, the “CoQ10 in the reduced form” value ([1]; kidney) was about 75% and the “CoQ10 in the reduced form” value ([1]; liver) was about 95%. The “CoQ10 in the reduced form” value ([1]; muscle) was about 65%, the “ANGPTL3 upregulation over control” value ([2]; 100 μM Q10, 16 hours) was “approximately 5.5 fold” and the “ANGPTL4 upregulation over control” value ([2]; 100 μM Q10, 16 hours) was about 3 fold. For the same molecule, the “CXCL1 upregulation over control” value ([2]; 100 μM Q10, 16 hours) was about 3 fold, the “CXCL3 upregulation over control” value ([2]; 100 μM Q10, 16 hours) was about 3.2 fold and the “CXCL5 upregulation over control” value ([2]; 100 μM Q10, 16 hours) was about 3 fold. The “ENG upregulation over control” value ([2]; 100 μM Q10, 16 hours) was about 3 fold, the “ID3 downregulation over control” value ([2]; 100 μM Q10, 16 hours) was “approximately 5 fold” and the “MMP2 upregulation over control” value ([2]; 100 μM Q10, 16 hours) was “approximately 1 fold”. For the same molecule, the “TIMP3 upregulation over control” value ([2]; 100 μM Q10, 16 hours) was about 6.5 fold, the “ANGPTL3 upregulation over control” value ([2]; 100 μM Q10, 48 hours) was “approximately 3.5 fold” and the “ANGPTL4 downregulation over control” value ([2]; 100 μM Q10, 48 hours) was “approximately 1 fold”. For the same molecule, the “CXCL1 upregulation over control” value ([2]; 100 μM Q10, 48 hours) was about 1.5 fold, the “CXCL3 upregulation over control” value ([2]; 100 μM Q10, 48 hours) was about 3.175 fold and the “CXCL5 downregulation over control” value ([2]; 100 μM Q10, 48 hours) was “approximately 1 fold”. The “ENG upregulation over control” value ([2]; 100 μM Q10, 48 hours) was about 2 fold, the “ID3 downregulation over control” value ([2]; 100 μM Q10, 48 hours) was about 2 fold and the “MMP2 downregulation over control” value ([2]; 100 μM Q10, 48 hours) was about 18 fold. The “TIMP3 upregulation over control” value ([2]; 100 μM Q10, 48 hours) was about 3 fold, the “Regulation (mRNA) at 6 hours” value [3] was “Down regulated at 6” and the “Regulation (mRNA) at 24 hours” value ([3]; gene BAX) was “Up regulated at 24 hours”. For the same molecule, the “Regulation (mRNA) at 24 hours” value ([3]; gene BCL2L1) was “hours and then up”, the “Regulation (mRNA) at 24 hours” value ([3]; gene BNIP3) was “Down regulated at 24” and the ECAR values [4] was “minimal influence on ECAR values”. For the same molecule, the “levels of examined proteins (Western blot)” value [5] was “several of the examined proteins were upregulated or downregulated”, the “early and late apoptosis” value [6] was “did not show any significant increases of early and late apoptosis” and the “genes regulated in the Apoptosis Arrays” value ([7]; 100 μM) was “BAG1 and CASP9 and TNFRSF1A”. The “BAG1 downregulation over control” value ([7]; 100 uM Q10, 16 hours) was “approximately 6 fold”, the “CASP9 upregulation over control” value ([7]; 100 uM Q10, 16 hours) was “approximately 61 fold” and the “TNFRSF1A downregulation over control” value ([7]; 100 uM Q10, 16 hours) was about 4 fold. The “BAG1 upregulation over control” value ([7]; 100 uM Q10, 48 hours) was about 1 fold, the “CASP9 upregulation over control” value ([7]; 100 uM Q10, 48 hours) was “approximately 55 fold” and the “TNFRSF1A upregulation over control” value ([7]; 100 uM Q10, 48 hours) was about 1 fold.
